Results published in US20230406840A1, “N-(2-(3-CYANO-2-AZABICYCLO[3.1.0]HEXAN-2-YL)-2-OXOETHYL)QUINOLINE-4-CARBOXAMIDES” (AstraZeneca AB, priority 2022, published 2023).

Legend:
[1] = biological target: human Fibroblast activation protein alpha (hFAP) (Homo sapiens (Human), UniProt Q12884); assay: hFAP inhibition assay (tight binders); assay type: biochemical; conditions: tight-binder format, Ala-Pro-AMC 20 μM, 2.5 h incubation; n = 1 or geometric mean (n = 5-10)
Experimental: Data were analyzed in Genedata Screener®.

[2] = biological target: Prolyl Oligopeptidase (hPREP) (Homo sapiens (Human), UniProt P48147); assay: hPREP inhibition assay; assay type: biochemical; conditions: hPREP 0.6 nM, Z-Gly-Pro-amino-methylcoumarin 50 μM; read-out: PREP IC50
Prolyl Oligopeptidase (hPREP), sequence (P48147 whole entry): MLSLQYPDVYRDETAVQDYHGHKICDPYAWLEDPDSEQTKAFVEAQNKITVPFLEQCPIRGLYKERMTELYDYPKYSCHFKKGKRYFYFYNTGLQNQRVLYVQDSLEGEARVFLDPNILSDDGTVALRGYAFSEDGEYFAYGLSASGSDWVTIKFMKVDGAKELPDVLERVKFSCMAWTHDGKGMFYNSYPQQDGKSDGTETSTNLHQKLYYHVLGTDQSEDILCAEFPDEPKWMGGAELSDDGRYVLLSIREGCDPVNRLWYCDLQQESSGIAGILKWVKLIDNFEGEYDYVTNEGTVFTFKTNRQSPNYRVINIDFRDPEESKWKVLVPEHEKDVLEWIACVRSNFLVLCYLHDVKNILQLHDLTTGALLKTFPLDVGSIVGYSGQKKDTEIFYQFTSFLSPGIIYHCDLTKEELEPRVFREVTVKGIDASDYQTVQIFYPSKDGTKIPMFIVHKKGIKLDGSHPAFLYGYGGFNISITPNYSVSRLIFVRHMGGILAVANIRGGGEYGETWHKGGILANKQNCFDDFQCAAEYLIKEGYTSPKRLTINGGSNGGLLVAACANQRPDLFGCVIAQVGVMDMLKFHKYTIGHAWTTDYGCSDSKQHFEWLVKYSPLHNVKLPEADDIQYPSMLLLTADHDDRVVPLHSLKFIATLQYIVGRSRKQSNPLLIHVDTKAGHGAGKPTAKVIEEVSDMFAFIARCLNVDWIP
Method in brief: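 Recombinant human PREP at 0.6 nM final, with Z-Gly-Pro-AMC substrate at 50 μM final. Buffer: 25 mM Tris HCl pH 7.5, 250 mM NaCl, 0.01% Triton X-100, 5 mM glutathione. Incubated 20 min at rt in the dark; fluorogenic AMC release read.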

[3] = biological target: hFAP (Homo sapiens (Human), UniProt Q12884);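 also: fluorescence read after incubating enzyme with substrate at room temperature, IC50 fitted from percent inhibition against log concentration with a one-site model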
hFAP, sequence (Q12884 38-760): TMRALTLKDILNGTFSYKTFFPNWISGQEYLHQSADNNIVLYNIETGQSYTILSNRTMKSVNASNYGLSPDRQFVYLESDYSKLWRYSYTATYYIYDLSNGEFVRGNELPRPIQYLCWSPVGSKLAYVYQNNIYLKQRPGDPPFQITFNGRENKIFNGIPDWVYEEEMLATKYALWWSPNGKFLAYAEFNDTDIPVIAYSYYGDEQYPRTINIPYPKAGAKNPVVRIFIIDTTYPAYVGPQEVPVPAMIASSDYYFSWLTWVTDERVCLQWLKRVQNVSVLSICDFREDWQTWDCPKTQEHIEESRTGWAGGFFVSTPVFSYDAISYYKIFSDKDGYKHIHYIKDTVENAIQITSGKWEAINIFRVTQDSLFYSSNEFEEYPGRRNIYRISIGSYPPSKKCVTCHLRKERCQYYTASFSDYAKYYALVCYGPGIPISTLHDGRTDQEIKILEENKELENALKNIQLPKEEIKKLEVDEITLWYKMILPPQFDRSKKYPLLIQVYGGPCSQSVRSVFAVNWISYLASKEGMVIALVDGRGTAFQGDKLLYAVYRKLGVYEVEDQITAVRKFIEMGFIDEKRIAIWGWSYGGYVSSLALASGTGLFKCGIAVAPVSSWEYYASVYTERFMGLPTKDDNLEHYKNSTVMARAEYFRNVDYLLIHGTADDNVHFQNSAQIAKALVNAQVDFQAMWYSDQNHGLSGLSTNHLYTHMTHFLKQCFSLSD
Experimental: Compounds were tested in a biochemical inhibition assay using hFAP enzyme at 0.24 nM FAC (Proteros, 38-760 (PR-0071)) and the substrate Ala-Pro-AMC (ARI-3144) at 20 μM FAC. 384 low volume black plates (Greiner #784076) were used. 4 μL, 0.48 nM enzyme solution (100 mM Tris HCl, 100 mM NaCl, 0.05% Chaps, pH 7.4) was added to 40 nL compounds (in DMSO) at 10 CR, 3-fold dilution series from 50 μM FAC. Plates were incubated for 15 min at rt in dark. 4 μL, 40 μM substrate solution (100 mM Tris HCl, 100 mM NaCl, 0.05% Chaps, pH 7.4) was added to each well. Plates were centrifuged at 1000 rpm and incubated for 30 min at rt in dark. The plates were read on a PHERAstar® reader with excitation 340 nm and emission 460 nm. Data were analyzed in Genedata Screener®. IC50 values were determined by plotting % inhibition versus log compound concentration and using a one site dose response model.

[4] = biological target: FAP Mouse Plasma (Mus musculus (Mouse), UniProt P97321); assay: FAP plasma inhibition assay, mouse plasma; assay type: biochemical; conditions: mouse plasma dilution 1:67, Ala-Pro-AMC 75 μM; n = 1
FAP Mouse Plasma, sequence (P97321 24-761 limits assumed): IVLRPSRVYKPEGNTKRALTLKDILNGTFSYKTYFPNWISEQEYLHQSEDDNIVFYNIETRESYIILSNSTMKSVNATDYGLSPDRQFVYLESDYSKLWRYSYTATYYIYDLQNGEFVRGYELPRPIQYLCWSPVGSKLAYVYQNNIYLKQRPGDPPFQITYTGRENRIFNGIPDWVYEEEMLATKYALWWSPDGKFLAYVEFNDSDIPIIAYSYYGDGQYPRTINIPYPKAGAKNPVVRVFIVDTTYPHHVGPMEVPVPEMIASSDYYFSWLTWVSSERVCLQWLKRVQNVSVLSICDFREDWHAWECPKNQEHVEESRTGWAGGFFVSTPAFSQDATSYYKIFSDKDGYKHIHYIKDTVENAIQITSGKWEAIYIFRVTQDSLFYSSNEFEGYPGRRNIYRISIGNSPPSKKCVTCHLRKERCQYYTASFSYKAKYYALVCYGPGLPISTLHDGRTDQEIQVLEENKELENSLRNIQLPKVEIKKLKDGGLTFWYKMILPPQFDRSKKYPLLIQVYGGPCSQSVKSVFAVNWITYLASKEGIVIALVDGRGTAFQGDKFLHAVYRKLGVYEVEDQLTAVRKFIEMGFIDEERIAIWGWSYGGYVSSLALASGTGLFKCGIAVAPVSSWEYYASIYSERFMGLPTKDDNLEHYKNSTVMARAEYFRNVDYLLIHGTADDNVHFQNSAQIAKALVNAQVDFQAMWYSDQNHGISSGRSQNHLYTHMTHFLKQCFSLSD
Experimental: (§1) This assay was adapted from the method described in Example 53 for detection of FAP target engagement enzyme activity in plasma. Plasma (anticoagulant K2EDTA) was used as the enzyme source: Human plasma (Pooled from AZ Biobank) and Mouse plasma (AZ AST Biobank). 384-Well black fluotrack PS plates (Greiner 781076) were used. 20 μL diluted plasma (Human plasma dilution 1:40, Mouse plasma dilution 1:67) in buffer (PBS, 0.1% BSA) was added to 0.6 μL compounds (in DMSO). Compounds were tested using 10 CR, 3-fold dilution series from 500 nM FAC. Two replicates for each assay point were run on the same plate. A fluorescence blank read was taken before substrate addition. Substrate, Ala-Pro-AMC (ARI-3144) stock solution (20 mM in DMSO) was diluted in buffer (PBS, 0.1% BSA) to 150 μM concentration and 20 μL added giving 75 μM FAC. Plates were incubated for 40 min at rt in the dark. The plates were read on a Beckman Paradigm® reader with excitation 360 nm and emission 465 nm. Data were analyzed in Excel (IDBS XLfit Add-In) using a one site dose response model (4-parameter logistic fit). […] Raw data signals were normalized using 1.5% DMSO in diluted plasma as 0% control and 1.5% DMSO in buffer (no plasma) as 100% inhibitor control.

[5] = biological target: FAP enzyme activity in mouse plasma (Mus musculus (Mouse), UniProt P97321); assay: FAP target engagement enzyme activity in mouse plasma after oral dosing; conditions: male C57Bl/6 mice, single oral dose 3 or 10 mg/kg; estimated from plasma exposure vs FAP activity, Imax fixed to 1; read-out: In vivo Mouse IC50
FAP enzyme activity in mouse plasma, sequence (P97321 24-761 limits assumed): as above
Experimental: The effect of test compound on FAP enzyme activity in mouse plasma was evaluated in an enzymatic assay using the Fibroblast Activation Protein alpha (FAP) specific fluorogenic substrate dipeptide-Coumarin, Ala-Pro-AMC, (ARI-3144). In this assay, FAP cleaves Ala-Pro-AMC to release free AMC which is measured as a fluorescent signal that correlates with enzyme activity.
Male C57Bl/6 mice (Charles River, Germany), 8 weeks of age, were single housed in a temperature-controlled room with a 12-hour light/dark cycle (06:00-18:00 light). The mice had ad libitum access to water and rodent chow diet (R70, Lactamin, Kimstad, Sweden), and were acclimated for 5 days upon arrival. After acclimation, all mice received a single oral dose of test compound (3 or 10 mg/kg). Blood samples for whole blood compound exposure measurements were taken at 0.25, 0.5, 1, 2, 4, 8 and 24 h post oral dosing. Samples were collected in EDTA capillary tubes (20 μL, K2E, REF 19.447) and were transferred to a 96-deep well plate (NUNC, Thermo Discher Scientific) and stored at −20° C. until further analyses were performed. […]
Recombinant human FAP (PB-17-1837, construct PL-17-0278, cd33-FAP (27-757)-6His, Mw85926 Da) was used as a standard for this assay. […] The plates were read on a Beckman Paradigm reader with excitation 360 nm and emission 465 nm. Fluorescence measurements were performed with kinetic read every 5 minutes for 60 min at room temperature. Data were analyzed in Excel (IDBS XLfit Add-In) using a Linear Regression (y=k*x+m) model to prepare a human recombinant FAP standard curve.
On the day of the assay, plasma was diluted (1:2) to 20 μL volume in buffer (PBS, 0.1% BSA) and 7.5 μL was transferred to the assay plate (384-well black, fluotrack PS, Greiner 781076). […] The plates were read on a Beckman Paradigm reader with excitation 360 nm and emission 465 nm. Fluorescence measurements were performed with kinetic read every 5 minutes for 60 minutes at room temperature. As noted above, FAP cleaves Ala-Pro-AMC to release free AMC which is measured as a fluorescent signal. […]

[6] = biological target: FAP Human Plasma (Homo sapiens (Human), UniProt Q12884); assay: FAP plasma inhibition assay, human plasma; assay type: biochemical; conditions: human plasma dilution 1:40, Ala-Pro-AMC 75 μM; n = 1
FAP Human Plasma, sequence (Q12884 24-760 limits assumed): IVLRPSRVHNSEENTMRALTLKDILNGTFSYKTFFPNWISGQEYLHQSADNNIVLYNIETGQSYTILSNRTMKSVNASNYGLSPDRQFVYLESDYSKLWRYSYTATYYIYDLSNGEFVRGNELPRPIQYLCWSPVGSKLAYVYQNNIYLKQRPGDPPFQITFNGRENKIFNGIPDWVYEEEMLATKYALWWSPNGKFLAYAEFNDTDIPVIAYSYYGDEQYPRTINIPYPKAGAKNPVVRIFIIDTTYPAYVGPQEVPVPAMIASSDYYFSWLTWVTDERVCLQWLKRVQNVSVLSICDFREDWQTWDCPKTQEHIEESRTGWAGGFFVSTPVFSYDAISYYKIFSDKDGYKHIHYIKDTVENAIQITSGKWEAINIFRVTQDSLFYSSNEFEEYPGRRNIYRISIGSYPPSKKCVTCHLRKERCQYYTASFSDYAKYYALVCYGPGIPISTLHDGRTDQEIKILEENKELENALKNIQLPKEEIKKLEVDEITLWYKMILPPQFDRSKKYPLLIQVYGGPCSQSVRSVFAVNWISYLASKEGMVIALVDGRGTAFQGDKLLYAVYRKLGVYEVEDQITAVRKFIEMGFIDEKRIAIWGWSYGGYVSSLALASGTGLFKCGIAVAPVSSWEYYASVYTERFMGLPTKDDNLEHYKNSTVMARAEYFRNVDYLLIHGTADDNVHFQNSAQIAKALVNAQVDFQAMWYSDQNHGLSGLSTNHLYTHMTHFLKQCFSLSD
Experimental: as §1

[7] = biological target: human dipeptidylpeptidase 9 (hDPP9) (Homo sapiens (Human), UniProt Q86TI2); assay: hDPP9 inhibition assay; assay type: biochemical; conditions: highest compound concentration 10 μM; n = 1
human dipeptidylpeptidase 9 (hDPP9), sequence (Q86TI2 whole entry): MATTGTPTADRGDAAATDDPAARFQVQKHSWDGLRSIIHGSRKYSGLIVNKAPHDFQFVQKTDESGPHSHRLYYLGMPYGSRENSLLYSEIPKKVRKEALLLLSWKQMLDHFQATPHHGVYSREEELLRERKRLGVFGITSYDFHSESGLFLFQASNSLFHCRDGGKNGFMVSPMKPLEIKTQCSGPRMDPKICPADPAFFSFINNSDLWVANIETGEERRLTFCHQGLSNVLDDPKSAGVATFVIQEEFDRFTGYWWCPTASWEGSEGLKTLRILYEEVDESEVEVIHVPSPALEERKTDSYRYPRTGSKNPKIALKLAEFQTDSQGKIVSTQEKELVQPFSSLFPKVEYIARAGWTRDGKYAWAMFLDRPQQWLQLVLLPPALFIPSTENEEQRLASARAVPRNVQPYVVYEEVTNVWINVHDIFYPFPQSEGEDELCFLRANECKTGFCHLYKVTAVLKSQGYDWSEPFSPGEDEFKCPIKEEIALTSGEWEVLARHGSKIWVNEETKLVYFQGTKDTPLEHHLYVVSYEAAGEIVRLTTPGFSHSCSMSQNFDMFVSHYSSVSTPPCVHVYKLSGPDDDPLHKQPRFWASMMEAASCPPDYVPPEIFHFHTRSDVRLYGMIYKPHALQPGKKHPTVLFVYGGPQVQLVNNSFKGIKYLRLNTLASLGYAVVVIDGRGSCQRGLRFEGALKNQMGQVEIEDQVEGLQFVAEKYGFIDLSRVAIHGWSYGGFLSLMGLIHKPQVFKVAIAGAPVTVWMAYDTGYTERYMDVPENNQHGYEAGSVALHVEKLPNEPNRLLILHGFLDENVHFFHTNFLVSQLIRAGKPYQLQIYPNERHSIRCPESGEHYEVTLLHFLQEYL
Experimental: Compounds were tested in a biochemical inhibition assay using human dipeptidylpeptidase 9 (hDPP9) enzyme (R&D, #5419-SE-010) and the substrate Gly-Pro-amino-methylcoumarin (Enzo #BML-P189-0005) at 10 μM FAC. The enzymatic reactions were conducted in duplicate at rt for 30 min in 50 μL assay buffer (50 mM Tris, pH 7.5, 0.1% BSA). Compound solutions (in DMSO) at 10 CR, 3-fold dilution series were prepared in assay buffer ten-fold higher than the final concentration, and 5 μL of the dilution was added to a 50 μL reaction so that the highest compound concentration was 10 μM FAC and the concentration of DMSO was 1% in all wells. The plates were read on a PHERAstarPLUS (BMG) using kinetic mode with excitation 340 nm and emission 460 nm. Data were analyzed in Graph Pad Prism. […] Raw data signals were normalized using 1% DMSO as 0% control and no enzyme as 100% inhibitor control.

[8] = tested on: Rat Hepatocytes (rHep); assay: Metabolic stability in rat hepatocytes (rHep); assay type: in vitro ADME
Experimental: Metabolic stability in rat hepatocytes was measured as described in J Comput Aided Mol Des 2015, 29, 795.

[9] = biological target: human dipeptidylpeptidase 8 (hDPP8) (Homo sapiens (Human), UniProt Q6V1X1); assay: hDPP8 inhibition assay; assay type: biochemical; conditions: single concentration 10 μM; n = 1
human dipeptidylpeptidase 8 (hDPP8), sequence (Q6V1X1 whole entry): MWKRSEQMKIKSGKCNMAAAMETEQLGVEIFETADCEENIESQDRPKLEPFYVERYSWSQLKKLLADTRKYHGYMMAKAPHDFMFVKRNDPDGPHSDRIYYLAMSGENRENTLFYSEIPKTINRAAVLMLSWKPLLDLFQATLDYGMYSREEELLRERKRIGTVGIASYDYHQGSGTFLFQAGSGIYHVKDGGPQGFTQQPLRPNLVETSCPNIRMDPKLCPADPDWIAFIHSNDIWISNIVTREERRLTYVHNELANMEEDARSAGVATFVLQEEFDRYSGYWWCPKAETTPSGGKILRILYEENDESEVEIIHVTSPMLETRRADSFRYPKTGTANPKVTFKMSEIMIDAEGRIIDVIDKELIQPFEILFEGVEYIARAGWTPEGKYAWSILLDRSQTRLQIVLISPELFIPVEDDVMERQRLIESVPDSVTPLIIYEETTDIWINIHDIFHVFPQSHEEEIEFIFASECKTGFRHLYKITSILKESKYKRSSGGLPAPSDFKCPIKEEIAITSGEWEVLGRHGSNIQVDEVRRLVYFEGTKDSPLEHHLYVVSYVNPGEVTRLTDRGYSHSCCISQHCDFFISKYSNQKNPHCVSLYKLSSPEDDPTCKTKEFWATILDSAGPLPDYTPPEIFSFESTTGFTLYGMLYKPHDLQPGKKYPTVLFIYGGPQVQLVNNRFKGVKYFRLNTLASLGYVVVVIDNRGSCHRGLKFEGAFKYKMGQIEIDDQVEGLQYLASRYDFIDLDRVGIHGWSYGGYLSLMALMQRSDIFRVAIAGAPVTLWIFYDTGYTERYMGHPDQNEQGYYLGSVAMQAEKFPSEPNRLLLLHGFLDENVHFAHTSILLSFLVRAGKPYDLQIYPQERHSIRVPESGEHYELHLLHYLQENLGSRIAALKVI
Experimental: Compounds were tested in a biochemical inhibition assay using human dipeptidylpeptidase 8 (hDPP8) enzyme (BPS Bioscience, #80800) and the substrate Gly-Pro-amino-methylcoumarin (Enzo #BML-P189-0005) at 10 μM FAC. The enzymatic reactions were conducted in duplicate at rt for 20 min in 50 μL assay buffer (50 mM Tris, pH 7.5, 0.1% BSA). Compound solutions (in DMSO), were prepared in assay buffer ten-fold higher than the final concentration, and 5 μL of the dilution was added to a 50 μL reaction so that the compound concentration was 10 μM FAC and the concentration of DMSO was 1% in all wells. The plates were read on a PHERAstarPLUS (BMG) using kinetic mode with excitation 340 nm and emission 460 nm. Data were analyzed in Graph Pad Prism. Raw data signals were normalized using 1% DMSO as 0% control and no enzyme as 100% inhibitor control.

[10] = Metabolic stability in human liver microsomes (HLM); assay type: in vitro ADME
Experimental: Metabolic stability in HLM was measured as described in J Comput Aided Mol Des 2015, 29, 795.

[11] = biological target: human dipeptidylpeptidase 7 (hDPP7) (Homo sapiens (Human), UniProt Q9UHL4); assay: hDPP7 inhibition assay; assay type: biochemical; conditions: highest compound concentration 10 μM; n = 1
Experimental: Compounds were tested in a biochemical inhibition assay using human dipeptidylpeptidase 7 (hDPP7) enzyme (BPS Bioscience, #80070) and the substrate Ala-Pro-amino-methylcoumarin (BPS Bioscience, #80305) at 10 μM FAC. The enzymatic reactions were conducted in duplicate at rt for 20 min in 50 μL assay buffer (10 mM Tris-HCl, pH 7.4, 10 mM MgCl2, 1 mM MnCl2). Compound solutions (in DMSO) at 10 CR, 3-fold dilution series were prepared in assay buffer ten-fold higher than the final concentration, and 5 μL of the dilution was added to a 50 μL reaction so that the highest compound concentration was 10 μM FAC and the concentration of DMSO was 1% in all wells. The plates were read on a PHERAstarPLUS (BMG) using kinetic mode with excitation 340 nm and emission 460 nm. Data were analyzed in Graph Pad Prism. Raw data signals were normalized using 1% DMSO as 0% control and no enzyme as 100% inhibitor control.

[12] = tested on: Human Hepatocytes (hHep); assay: Metabolic stability in human hepatocytes (hHep); assay type: in vitro ADME
Experimental: Metabolic stability in human hepatocytes was measured as described in Xenobiotica 2010, 40, 637.

[13] = Kinetic solubility; assay type: physicochemical; conditions: kinetic from dmso stock
Experimental: Kinetic solubility was measured as described in Comput Aided Mol Des 2015, 29, 795.

human Fibroblast activation protein alpha (hFAP), sequence (Q12884 38-760): as the sequence (Q12884 38-760) above

N#C[C@@H]1C[C@@H]2C[C@@H]2N1C(=O)CNC(=O)c1ccnc2cc(Cl)ccc12 [Example 2, 7-Chloro-N-(2-((1S,3S,5S)-3-cyano-2-azabicyclo[3.1.0]hexan-2-yl)-2-oxoethyl)quinoline-4-carboxamide]
IC50 [1]: 0.18 nM | IC50 [2]: > 50000 nM | IC50 [3]: 0.65 nM | IC50 [4]: 7.1 nM | IC50 [5]: 21 nM | IC50 [6]: 13 nM

N#C[C@@H]1C[C@@H]2C[C@@H]2N1C(=O)CNC(=O)c1ccnc2cc(C(F)(F)F)ccc12 [Example 23, N-(2-((1S,3S,5S)-3-Cyano-2-azabicyclo[3.1.0]hexan-2-yl)-2-oxoethyl)-7-(trifluoromethyl)quinoline-4-carboxamide]
IC50 [1]: 0.33 nM | IC50 [2]: 12000 nM | IC50 [3]: 0.81 nM | IC50 [4]: 1.9 nM | IC50 [7]: > 10 nM | rHeps CLint [8]: 7.7 μL/min/1E6 | hDPP8 Activity at Compound Concentration 10 μM [9]: Not Active | IC50 [6]: 3.6 nM | microsomal CLint [10]: 9.9 µL/min/mg | IC50 [11]: > 10 nM | hHep CLint [12]: 1.6 μL/min/1E6 | solubility [13]: > 1000 µM
